Data as given in BindingDB's records for doi:10.1038/sj.bjp.0705856 (Schering-Plough Research Institute, 2004).
pKi: −log10 of the molar value. “And” between values parts separate entries of the source, which are not always exact repeats. Identical values can stand only once.

Target: T1, Sphingosine 1-phosphate receptor 4 (Homo sapiens, UniProt O95977)
T1 sequence (O95977 whole entry): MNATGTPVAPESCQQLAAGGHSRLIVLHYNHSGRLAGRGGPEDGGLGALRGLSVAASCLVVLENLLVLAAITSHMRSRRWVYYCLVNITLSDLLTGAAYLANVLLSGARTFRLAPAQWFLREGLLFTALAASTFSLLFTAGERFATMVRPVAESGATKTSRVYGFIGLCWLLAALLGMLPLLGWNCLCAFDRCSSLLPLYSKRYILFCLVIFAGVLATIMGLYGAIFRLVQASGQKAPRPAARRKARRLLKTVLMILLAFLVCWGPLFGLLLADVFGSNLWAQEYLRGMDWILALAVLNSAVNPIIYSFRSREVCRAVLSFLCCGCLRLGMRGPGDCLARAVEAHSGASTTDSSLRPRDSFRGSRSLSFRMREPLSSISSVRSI

With CCCCCCCCCCCCC/C=C\C(O)C(N)COP(=O)(O)O (stereo unspecified) [{[(4Z)-2-amino-3-hydroxyoctadec-4-en-1-yl]oxy}phosphonic acid] as the compound, how does the pKi read?
The pKi was 7.68 and 7.19 and 7.57 and 7.49 and 7.55 and 7.48.
